Measured values: US20230272357A1, “METHODS OF GENOME EDITING INCLUDING CONTROLLED OPENING OF CHROMATIN” (Wisconsin Alumni Research Foundation, priority 2021, published 2023)

Assays:
Assay type in all cases: cell-based, human
[1] = system: iPSCs; test: iPSC morphology during long-term culture of edited cells; conditions: long-term culture of the edited cells, 6.25 ng/mL TSA
[2] = system: iPSCs; test: Bulk RNA sequencing of TSA-treated iPSCs; conditions: edited clones from 6.25 ng/mL TSA, data not shown
Experimental: RNA extraction and Bulk RNA sequencing: RNA was extracted from iPSCs in one well of 6-well plate using the GenElute™ Total RNA Purification Kit (Millipore Sigma) according to the manufacturer's instructions. RNA was then quantified using Nanodrop™ 2000 (ThermoFisher Scientific) and the integrity of samples were confirmed with the following three criteria for inclusion: 1) a concentration>50 ng/ml, 2) an A260/A280 rating of 1.8 and 2.1, and 3) an A260/A230 ratio>1.8. Total RNA was submitted to the University of Wisconsin-Madison Biotechnology Center and was verified for purity and integrity via the NanoDrop™ One Spectrophotometer and Agilent 2100 BioAnalyzer, respectively. Samples that met the Illumina® sample input guidelines were prepared according to the TruSeq®Stranded Total Sample Preparation Guide (1000000040499 v00) using the Illumina® TruSeq ® Stranded Total Sample Preparation kits (Illumina Inc., San Diego, Calif., USA) and sequenced on an Illumina® NovaSeg™ 6000 system at a run length 2×150 bp and target read depth of 30 million reads/sample at the University of Wisconsin—Madison Biotechnology Center. […] Normalized counts were then extracted and genes with read counts <10 were filtered out. Fold change was then calculated as the ratio of the reads of the TSA-treated iPSCs to the untreated iPSCs.

[3] = system: HIST1H2BJ-GFP locus; test: CRISPR-Cas9 gene editing efficiency by flow cytometry (GFP- cells)
Experimental: SpyCas9 RNP preparation: RNPs were produced by complexing a two-component gRNA to SpyCas9. In brief, tracr-RNA and crRNA were ordered from IDT, suspended in nuclease-free duplex buffer at 100 μM, and stored in single-use aliquots at −20° C. tracrRNA and crRNA were thawed, and 0.0625 μL of each component was mixed 1:1 by volume and annealed by incubation at room temperature for 5 minutes to form a 50 μM sgRNA solution for each well of a 96 well plate. Recombinant sNLS-SpCas9-sNLS Cas9 (Aldevron, 10 mg/mL) was added to the complexed gRNA at a 1:1 molar ratio (1000 ng/well, Total 0.1 μL) and incubated for 5 minutes at room temperature to form RNP.
RNP delivery: iPSCs were singularized using Accutase™ and counted using a Countess® II FL Automated Cell Counter (Thermo Fisher Scientific) with 0.4% Trypan Blue viability stain (Thermo Fisher Scientific). iPSCs were then seeded at 15,000 cells/well on 96 well glass bottom plates (Cellvis) in mTeSR1 (WiCell) and 10 μM ROCK inhibitor (Y27632, Selleckchem), two days before lipofection or electroporation. On the following day, iPSCs were treated with TSA (0-200 ng/mL) for 16-24 hours. iPSC lipofections were performed using 0.5 μL Lipofectamine Stem Cell Reagent/well (1000 ng Cas9/well and sgRNA at 1:1 molar ratio). Cells remained undisturbed for 48 hours and were then passaged 1:4 using ReLeSR™ solution followed by daily mTeSR1 media changes for 4 additional days before downstream analysis.
Flow cytometry and fluorescence activated cell sorting: Flow cytometry was performed on singularized iPSCs using Attune™ Nxt flow cytometer (ThermoFisher Scientific) and analyzed using the FlowJo Software. Ghost Dye™ Red 780, ATTO 550, and GFP fluorescence were detected using 780/60, 585/16, and 530/30 filters in […] positions, respectively. Gates were established by running singularized untransfected iPSCs. The percentage of viable cells was calculated as the ratio of Ghost Dye™ Red 780-cells to the total number of single cells. Transfection efficiency was calculated as the percentage of ATTO 550+ cells to the total number of viable cells on day 2 post-transfection. Gene editing efficiency was calculated as the percentage of GFP-cells to the total number of viable cells on day 6 post-transfection. For the sorting experiments, iPSCs were singularized 6 days post-transfection using Accutase™, washed with PBS+20 μM ROCK inhibitor, centrifuged at 300 g for 5 minutes. Ghost Dye™ Red 780 viability dye (Tonbo Biosciences) was then added at 1:1000 concentration for 20 minutes at room temperature. Cells were washed again with PBS+20 μM ROCK inhibitor, spun down at 300 g for 5 minutes, and resuspended in 300 μL of FACS buffer (PBS+2% BSA+20 μM ROCK inhibitor). GFP-cells were then sorted into tubes containing mTeSR1+20 μM ROCK inhibitor, and seeded onto Matrigel®-coated 6 well polystyrene plates at 100 cells/well to obtain single-cell iPSC clones.
A simple, yet robust, workflow has been developed to introduce mutations in iPSCs without extensive use of deep sequencing (FIG. 1A). A mono-allelic mEGFP tagged HIST1H2BJWTC-11 human iPSC line (tag at C-terminus) was used as it provides two-fold advantages. […] Second, these iPSCs enable in situ live imaging of their cell nuclei to monitor chromatin changes during the process of CRISPR-Cas9 gene editing. An Alt-R® CRISPR-Cas9 2-part single guide RNA (sgRNA) system (IDT) was employed, which consists of 1) crRNA sequence to target the mEGFP locus in iPSCs (FIG. 1B), and 2) ATTO™ 550 fluorescent dye labelled tracrRNA that binds to Cas9. A range of TSA concentrations (0-200 ng/mL) were tested on iPSCs to determine the effect of TSA on cell viability. […] TSA concentrations of 0, 3.13, 6.25, and 12.5 ng/mL for further studies. Next, a range of TSA treatment durations (0-24 hours) were assessed and two methods for delivery for the Cas9 RNP complex (lipofection and electroporation) were also assessed to determine the optimal conditions for gene editing. […]

## CC(/C=C/C(=O)NO)=C\[C@@H](C)C(=O)c1ccc(N(C)C)cc1 [TSA, Trichostatin A]
[1]
  iPSC morphology: no changes
[2]
  Gene expression of pluripotency marker genes (OCT4, NANOG, SOX2, TRA-1-60): did not decrease
[3]; TSA 0-12.5 ng/mL, FIG. 1D
  Gene editing efficiency (% GFP- cells/viable cells) upon TSA treatment: increases
[3]; TSA 6.25 ng/mL, day 6 after Cas9 RNP delivery
  Increase in gene editing efficiency (% GFP- cells/viable cells): 2-3 fold
[3]; TSA 12.5 ng/mL vs 6.25 ng/mL
  Gene editing efficiency on additional increase of TSA concentration: did not increase the editing efficiency further
[3]; chromatin decondensation via TSA, summary statement
  Increase in gene editing efficiency of iPSCs: 2-3 fold
[3]; concentrations up to 6.25 ng/mL, day 6
  Relation between gene editing efficiency (% GFP- cells/viable cells) and dose of TSA: positive correlation
[3]; durations 0-24 hours assessed, data not shown
  TSA treatment duration yielding the highest gene editing efficiencies: 20 h
